The results in this text go back to patent US7250441B2, “Carbazole and cyclopentaindole derivatives to treat infection with Hepatitis C virus” (priority 2004, dated 2007).

Usually IC50 stands for the concentration needed to halve the response being measured.

For this assay, the target named is T1, HCV RdRp NS5B d21BK (NS5B from the BK strain, genotype 1b) (Hepatitis C virus genotype 1b, UniProt P26663).
T1 construct: NS5B from the BK strain (genotype 1b) is expressed in E coli as a protein in which the 21 C-terminal amino acids are replaced; made in house; host or cells: E. coli
T1 sequence (P26663 2420-2989): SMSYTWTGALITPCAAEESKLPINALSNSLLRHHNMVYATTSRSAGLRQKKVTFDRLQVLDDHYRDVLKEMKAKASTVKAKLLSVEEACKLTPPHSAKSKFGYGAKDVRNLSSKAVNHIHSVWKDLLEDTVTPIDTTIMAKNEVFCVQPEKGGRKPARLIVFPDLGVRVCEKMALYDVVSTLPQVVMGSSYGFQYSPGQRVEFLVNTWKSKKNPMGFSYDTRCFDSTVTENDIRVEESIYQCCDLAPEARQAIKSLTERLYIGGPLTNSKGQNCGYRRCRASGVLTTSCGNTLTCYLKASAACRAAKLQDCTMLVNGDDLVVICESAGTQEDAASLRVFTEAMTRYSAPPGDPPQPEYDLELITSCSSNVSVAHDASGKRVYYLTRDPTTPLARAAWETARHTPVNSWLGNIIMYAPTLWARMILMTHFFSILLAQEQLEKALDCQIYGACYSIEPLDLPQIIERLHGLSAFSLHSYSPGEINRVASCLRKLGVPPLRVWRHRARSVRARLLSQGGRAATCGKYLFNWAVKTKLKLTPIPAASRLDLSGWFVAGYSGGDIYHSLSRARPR
Put plainly: Hepatitis C polymerase inhibition assay, radioactive nucleotide incorporation with filter capture. It counts as biochemical. The text has this:
The ability of the compounds of formula (I) to inhibit Hepatitis C Polymerase was established by the following experimental procedure.
NS5B from the BK strain (genotype 1b) is expressed in E coli as a protein in which the 21 C-terminal amino acids are replaced with a short linker and a hexahistidine tag ([…]). The purified protein is mixed with radioactive nucleotides and allowed to replicate a heteropolymeric RNA substrate, primed by an endogenous short hairpin, resulting in an approximately 760 nt product. The radioactive product is captured on a filter and quantitated after removal of the unincorporated nucleotides.
(1) Compounds 10 μl at 10 μg/ml in 15% dimethylsulfoxide (DMSO)
When starting from 100 μg/ml compound stock in 1% DMSO, 5 μl 30% DMSO is dispensed per well. Next, 5 μl compound (100 μg/ml) is dispensed per well.
When starting from 50 μg/ml compound stock in 15% DMSO, 10 μl compound is added per well.
20 μl enzyme mix is added into each well of the assay plate. The compound and enzyme are incubated at room temperature for 15 minutes.
(3) Template mix (prepared in advance)
A tube of RNA (5 μg/tube stored in 75% ethanol and 0.3 M sodium acetate) is microcentrifuged for 20 minutes at 4° C. (one tube supplies 1-1.5 plates). Ethanol is removed from the tube by gently inverting the tube. The RNA is vacuum dried and re-suspended in 1 ml of DEPC water in a tightly capped tube. To dissolve RNA, the RNA solution is incubated on ice for ˜60 minutes and gently vortexed. It is spun briefly to ensure all RNA solution at the bottom of the tube before opening cap. The RNA solution is then gently transferred into a 5 ml or larger tube. Another 3 ml of DEPC water is added to obtain a total of 4 ml of volume.
The following volumes of reagents are added:
20 μl template mix per reaction is added (i.e. 20 ng of pOF per reaction or ˜3 nM)
(4) The reaction is incubated at room temperature (22-25° C.) for 2 hours.
(5) The reaction is quenched by adding 50 μl of 170 mM EDTA.
Final concentration of EDTA is 85 mM.
(6) The filters of Millipore multiscreen assay plate is pre-wet by adding 200 μl of 0.5 M sodium phosphate buffer, pH 7.0 into each well. This stands at room temperature for 2-3 minutes.
(7) The multiscreen filter plate is placed onto a Millipore Manifold under vacuum to allow buffer to flow through. After the vacuum is turned off, 80 μl of the reaction product is transferred into each well of the filter plate. This stands for 2-3 minutes prior to turning on the vacuum again to filter the reaction product.
(8) The vacuum is then removed. 200 μl of 0.5 M sodium phosphate buffer is added, pH 7.0, into each well. The vacuum is then turned on.
Step (8) is repeated three more times.
(9) Next the polypropylene bottom is removed, and the filter is spot dried with a paper towel. The filter plate is air-dried on a bench for 1 hour before adding 40 μl Super Mix scintillant. The top of the plate is sealed with a tape and the plate is placed into a Packard carrier or micro-beta carrier.
(10) The plate is counted using a Packard Topcount or micro-beta counter. Count (for example using Program 10) for ^33P in Top count or ^33P program in micro-beta.
The percent inhibition is calculated after background subtraction as a percent reduction of activity relative to the positive control (average value of the plate excluding the negative controls). For the primary screen hits were chosen as showing >75% inhibition.
See, Ferrari et al. 1999. J. Virology 73:1649-1654: “Characterization of soluble Hepatitis C virus RNA-dependent RNA polymerase expressed in E. coli and Takamizawa et al 1991” and J. Virology 65:1105-1113: “Structure and characterization of Hepatitis C virus genome isolated from human carriers,” both reference are hereby incorporated by reference.
`C=CCC1(C(=O)O)CCc2c1[nH]c1c(Cl)ccc(Cl)c21` (stereo not shown) [Example 1, 3-Allyl-5,8-dichloro-1,2,3,4-tetrahydro-cyclopenta[b]indole-3-carboxylic acid]: the IC50 stood at 1.2 µM.
With `CCCCC1(C(=O)O)CCc2c1[nH]c1c(Cl)ccc(Cl)c21` (stereo not shown) [Example 2, 3-Butyl-5,8-dichloro-1,2,3,4-tetrahydro-cyclopenta[b]indole-3-carboxylic acid] the figure was 1.9 µM; with `CCCC1(C(=O)O)CCc2c1[nH]c1c(Cl)ccc(Cl)c21` (stereo not shown) [Example 3, 5,8-Dichloro-3-propyl-1,2,3,4-tetrahydro-cyclopenta[b]indole-3-carboxylic acid], 0.55 µM; with `CCCCC1(C(=O)O)CCc2c1[nH]c1c(C)ccc(Br)c21` (stereo not shown) [Example 4, 8-Bromo-3-butyl-5-methyl-1,2,3,4-tetrahydro-cyclopenta[b]indole-3-carboxylic acid], 6.7 µM.
In the case of `CCCCC1(C(=O)O)CCc2c1[nH]c1c(F)ccc(Br)c21` (stereo not shown) [Example 5, 8-Bromo-3-butyl-5-fluoro-1,2,3,4-tetrahydro-cyclopenta[b]indole-3-carboxylic acid], the IC50 is 5.8 µM.
In the case of `CCCCC1(C(=O)O)CCc2c1[nH]c1c(C)cc(F)c(Br)c21` (stereo not shown) [Example 6, 8-Bromo-3-butyl-7-fluoro-5-methyl-1,2,3,4-tetrahydro-cyclopenta[b]indole-3-carboxylic acid], the IC50 was 2.1 µM.
For the compound `CCCCC1(C(=O)O)CCc2c1[nH]c1c(C)cc(F)cc21` (stereo not shown) [Example 7, 3-Butyl-7-fluoro-5-methyl-1,2,3,4-tetrahydro-cyclopenta[b]indole-3-carboxylic acid], the IC50 stood at 9.1 µM.
The value for `C=CCC1(C(=O)O)CCc2c1[nH]c1c(C)ccc(Br)c21` (stereo not shown) [Example 8, 3-Allyl-8-bromo-5-methyl-1,2,3,4-tetrahydro-cyclopenta[b]indole-3-carboxylic acid] was 5.7 µM.
Consider `C=CCC1(C(=O)O)CCc2c1[nH]c1c(F)ccc(Br)c21` (stereo not shown) [Example 9, 3-Allyl-8-bromo-5-fluoro-1,2,3,4-tetrahydro-cyclopenta[b]indole-3-carboxylic acid], for which the IC50 was found to be 6.4 µM.
For the compound `C=CCC1(C(=O)O)CCc2c1[nH]c1c(C)cc(F)c(Br)c21` (stereo not shown) [Example 10, 3-Allyl-8-bromo-7-fluoro-5-methyl-1,2,3,4-tetrahydro-cyclopenta[b]indole-3-carboxylic acid], the concentration for half-maximal inhibition (IC50) was found to be 3.2 µM.
For `CCCC1(C(=O)O)CCc2c1[nH]c1c(C)ccc(Br)c21` (stereo not shown) [Example 11, 8-Bromo-5-methyl-3-propyl-1,2,3,4-tetrahydro-cyclopenta[b]indole-3-carboxylic acid], the IC50 was determined as 1.9 µM.
For `CCCC1(C(=O)O)CCc2c1[nH]c1c(F)ccc(Br)c21` (stereo not shown) [Example 12, 8-Bromo-5-fluoro-3-propyl-1,2,3,4-tetrahydro-cyclopenta[b]indole-3-carboxylic acid], the IC50 came to 2.9 µM.
Consider `CCCC1(C(=O)O)CCc2c1[nH]c1c(C)cc(F)c(Br)c21` (stereo not shown) [Example 13, 8-Bromo-7-fluoro-5-methyl-3-propyl-1,2,3,4-tetrahydro-cyclopenta[b]indole-3-carboxylic acid], for which the half-maximal inhibitory concentration (IC50) came to 2 µM.
As to `C=CCC1(C(=O)O)CCc2c1[nH]c1c(F)ccc(C#N)c21` (stereo not shown) [Example 14, 3-Allyl-8-cyano-5-fluoro-1,2,3,4-tetrahydro-cyclopenta[b]indole-3-carboxylic acid], the IC50 was determined as 14.5 µM.
As to `CCCCC1(C(=O)O)CCc2c1[nH]c1c(C)ccc(C#N)c21` (stereo not shown) [Example 15, 3-Butyl-8-cyano-5-methyl-1,2,3,4-tetrahydro-cyclopenta[b]indole-3-carboxylic acid], the IC50 is 4.6 µM.
Regarding `CCCCC1(C(=O)O)CCc2c1[nH]c1c(F)ccc(C#N)c21` (stereo not shown) [Example 16, 3-Butyl-8-cyano-5-fluoro-1,2,3,4-tetrahydro-cyclopenta[b]indole-3-carboxylic acid], the IC50 is 5.4 µM.
In the case of `CCCCC1(C(=O)O)CCc2c1[nH]c1c(C)cc(F)c(C#N)c21` (stereo not shown) [Example 17, 3-Butyl-8-cyano-7-fluoro-5-methyl-1,2,3,4-tetrahydro-cyclopenta[b]indole-3-carboxylic acid], the IC50 stood at 1.5 µM.
Turning to `C=CCC1(C(=O)O)CCc2c1[nH]c1c(C)ccc(C#N)c21` (stereo not shown) [Example 18, 3-Allyl-8-cyano-5-methyl-1,2,3,4-tetrahydro-cyclopenta[b]indole-3-carboxylic acid], the IC50 came to 11 µM.
Regarding `C=CCC1(C(=O)O)CCc2c1[nH]c1c(C)cc(F)c(C#N)c21` (stereo not shown) [Example 19, 3-Allyl-8-cyano-7-fluoro-5-methyl-1,2,3,4-tetrahydro-cyclopenta[b]indole-3-carboxylic acid], the IC50 worked out at 6.3 µM.
As to `CCCC1(C(=O)O)CCc2c1[nH]c1c(C)ccc(C#N)c21` (stereo not shown) [Example 20, 8-Cyano-5-methyl-3-propyl-1,2,3,4-tetrahydro-cyclopenta[b]indole-3-carboxylic acid], the IC50 stood at 4.7 µM.
The value for `CCCC1(C(=O)O)CCc2c1[nH]c1c(F)ccc(C#N)c21` (stereo not shown) [Example 21, 8-Cyano-5-fluoro-3-propyl-1,2,3,4-tetrahydro-cyclopenta[b]indole-3-carboxylic acid] was 8.1 µM; that for `CCCC1(C(=O)O)CCc2c1[nH]c1c(C)cc(F)c(C#N)c21` (stereo not shown) [Example 22, 8-Cyano-7-fluoro-5-methyl-3-propyl-1,2,3,4-tetrahydro-cyclopenta[b]indole-3-carboxylic acid] was 1.8 µM.
The value for `CCC1(C(=O)O)CCCc2c1[nH]c1c(Cl)ccc(Cl)c21` (stereo not shown) [Example 23, 5,8-Dichloro-1-ethyl-2,3,4,9-tetrahydro-1H-carbazole-1-carboxylic acid] was 9.7 µM; that for `CCCC1(C(=O)O)CCCc2c1[nH]c1c(Cl)ccc(Cl)c21` (stereo not shown) [Example 24, 5,8-Dichloro-1-propyl-2,3,4,9-tetrahydro-1H-carbazole-1-carboxylic acid] was 3.2 µM; that for `CCCC1(C(=O)O)CCCc2c1[nH]c1c(F)ccc(C#N)c21` (stereo not shown) [Example 25, 5-Cyano-8-fluoro-1-propyl-2,3,4,9-tetrahydro-1H-carbazole-1-carboxylic acid] was 10 µM.
As to `N#Cc1ccc(F)c2[nH]c3c(c12)CCCC3(CC1CCC1)C(=O)O` (stereo not shown) [Example 26, 5-Cyano-1-cyclobutylmethyl-8-fluoro-2,3,4,9-tetrahydro-1H-carbazole-1-carboxylic acid], the half-inhibitory concentration (IC50) is 16 µM.
As for `CCCC1(C(=O)O)CCCc2c1[nH]c1c(Cl)ccc(C(F)(F)F)c21` (stereo not shown) [Example 27, 8-Chloro-1-propyl-5-trifluoromethyl-2,3,4,9-tetrahydro-1H-carbazole-1-carboxylic acid], the half-inhibitory concentration (IC50) was determined as 5.8 µM.
Take `CCCC1(C(=O)O)CCCc2c1[nH]c1c(C)ccc(C#N)c21` (stereo not shown) [Example 28, 5-Cyano-8-methyl-1-propyl-2,3,4,9-tetrahydro-1H-carbazole-1-carboxylic acid]: the IC50 is 15 µM.
`C=CCC1(CC(=O)O)CCCc2c1[nH]c1c(F)ccc(F)c21` (stereo not shown) [Example 29, (1-Allyl-5,8-difluoro-2,3,4,9-tetrahydro-1H-carbazol-1-yl)-acetic acid]: the concentration for half-maximal inhibition (IC50) came to 32 µM.
In the case of `CCCC1(CC(=O)O)CCCc2c1[nH]c1cc(F)cc(F)c21` (stereo not shown) [Example 30, (5,7-Difluoro-1-propyl-2,3,4,9-tetrahydro-1H-carbazol-1-yl)-acetic acid], the IC50 is 30.7 µM.
In the case of `C=CCC1(CC(=O)O)CCCc2c1[nH]c1c(F)ccc(C#N)c21` (stereo not shown) [Example 31, (1-Allyl-5-cyano-8-fluoro-2,3,4,9-tetrahydro-1H-carbazol-1-yl)-acetic acid], the IC50 is 0.37 µM.
